The values that follow come from patent US10424806B2, “Organic non-aqueous cation-based redox flow batteries” (UCHICAGO ARGONNE, LLC, priority 2012, dated 2019).

Data set [1] can be described thus: Cyclic voltammetry in Pt/Na/Na cell with sodium electrolyte. Type of data set: physicochemical. The conditions noted are these: NaPF6 in propylene carbonate. The procedure:
The redox materials described herein also can be utilized with sodium-based electrolyte salts. For example, FIG. 22(a) provides a cyclic voltammogram obtained with about 17 mM DBBB in 0.247 M Na PF6 in propylene carbonate, in a Pt/Na/Na cell at scan rates of 5, 20, 50, and 100 mV/s. FIG. 22(b) provides a cyclic voltammogram obtained with about 13 mM 2,3,6-trimethylquinoxaline in 0.217 M NaPF6 in propylene carbonate at a 20 mV/s scan rate.

Data set [2] is described as follows: Solubility in solvent or electrolyte. Type of data set: physicochemical.
The nature of data set [3]: Cyclic voltammetry in Pt/Li/Li three-electrode cell. Type of data set: physicochemical. The note with it: for redox properties from cyclic voltammogram: lithium electrolyte and concentration differ per compound; for performance compared with quinoxaline: 0.005 M in Electrolyte B; for Potential: 10 mM in 1.2 M LiPF6 in EC/EMC (3:7 by weight), Pt/Li/Li. The procedure: The upper and lower redox potentials shown in FIG. 5 were determined by a combination of average peak potential and graphical analysis of the cyclic voltammograms over a range of scan rates (5, 10, 20, 50, 100, and 200 mV/s).
Cyclic voltammetry (CV) were performed in a custom-made airtight three-electrode electrochemical cell with a 2-mm diameter platinum disk working electrode and lithium metal counter and reference electrodes. Prior to use, the platinum disk electrode was dipped in nitric acid solution (about 50 vol % HNO3, Ricca Chemical Company) and then polished on a MICROCLOTH® pad with 0.3 μm and 0.05 μm alumina (Buehler Ltd., Lake Bluff, Ill.). After polishing, the electrode was thoroughly rinsed with distilled water and dried with house nitrogen. The electrochemical cell was then assembled in an Argon-filled glove box and transferred out to perform measurements. […] All evaluations were performed in triplicate at room temperature.
The redox potential of DBBB was calculated by averaging the oxidation and reduction peak potentials in the two different electrolytes at various scan rates (5, 10, 20, 50, 100, and 200 mV/s). […] The shift in the peak potential with the scan rate may be caused by the limited charge-transfer kinetics of the active species (DBBB) and the uncompensated resistance, which is commonly called the “iR drop”. Because the polarization from the kinetic effect and iR drop is triggered by the current flowing through the electrochemical cell, the average peak potential [(Epa+Epc)/2] gives a good estimation of the redox potential of the reversible electroactive species. […] Evaluations were performed in triplicate in a Pt/Li/Li cell at room temperature.

Data set [4] is described as follows: Diffusion coefficient from Randle-Sevcik measurements. It is filed as physicochemical. The protocol:
2,5-Di-tert-butyl-1,4-bis(2-methoxyethoxy)benzene (“DBBB”) is a redox material developed at Argonne National Laboratory for overcharge protection in Li-ion batteries. […] The diffusion coefficient of DBBB was determined to be about 1.30×10^−6 cm^2/s in the battery electrolyte based on Randle-Sevcik measurements. However, Electrolyte A is non-ideal for flow battery applications due to high volatility, extreme moisture sensitivity, and high materials cost. Thus, an electrolyte consisting of 0.2 M LiBF4 in propylene carbonate (“Electrolyte B”) was also investigated as a more robust and lower cost alternative. FIG. 2b show iR-corrected cyclic voltammograms of 0.005 M DBBB in Electrolyte A and in Electrolyte B at a scan rate of 20 mV/s. […] Thus, 2,5-di-tert-butyl-1,4-dialkoxybenzene compounds, such as DBBB, are active in different electrolyte systems, and the performance of these materials can be tailored by the choice of the electrolyte composition.

For data set [5] the following is noted: Li-ion cell, 100% overcharge; cited from earlier work.
Data set [6] is described as follows: Intrinsic capacity and energy density (Table 1). Type of data set: physicochemical. An excerpt:
Table 1 provides a summary of the useful redox properties of these compounds.

Regarding `Cc1ccc2nc(C)c(C)nc2c1` [2,3,6-trimethylquinoxaline], the “redox properties from cyclic voltammogram” value (“redox properties” for short) in data set [1] is reported as “suitable reversible redox properties”.
In the case of `Oc1nc2ccccc2nc1O` [2,3-Dihydroxyquinoxaline], the “solubility in electrolyte solution” value in data set [2] (Electrolyte B) is listed as “not soluble”.
Consider `BrCc1nc2ccccc2nc1CBr` [2,3-bis(bromomethyl)quinoxaline], for which, in data set [3] (Electrolyte B), the redox activity entry is listed as “no redox activity was observed”.
As to `CC(=O)c1cnc2ccccc2n1` [2-Acetylquinoxaline], in data set [3] (Electrolyte B), the redox activity result is “some redox activity”; the “separation of oxidation and reduction events” value is reported as “about 1 V”.
`FC(F)(F)c1cnc2ccccc2n1` [2-trifluoromethylquinoxaline]: the redox activity result in data set [3] (Electrolyte B) is “no redox activity was observed”.
`CN1c2ccccc2N(C)c2ccccc21` [5,10-dihydro-5,10-dimethylphenazine]: the “redox properties” value in data set [3] (Pt/Li/Li cell) was “suitable redox properties”.
For the compound `Cc1cccc2nccnc12` [5-methylquinoxaline], in data set [3] (Pt/Li/Li cell), the “performance compared with quinoxaline” value is “lower activity”.
Regarding `Cc1cc2nc(-c3ccccn3)c(-c3ccccn3)nc2cc1C` [6,7-dimethyl-2,3-di(2-pyridyl)quinoxaline], the lower redox potential entry in data set [3] (Electrolyte B, Pt/Li/Li cell, average peak potential method) is reported as “about 2.6 V”.
For the compound `Cc1ccc2nccnc2c1` [6-methylquinoxaline], the “performance compared with quinoxaline” value in data set [3] (Pt/Li/Li cell) was “slightly better performance than quinoxaline”.
In the case of `Fc1c(F)c(F)c2c(c1F)OCCO2` [Compound 5], the “redox properties” value in data set [3] (Pt/Li/Li cell) was “redox properties suitable for use as redox reactants for the positive electrolyte”.
With `Fc1ccc(B2Oc3c(F)c(F)c(F)c(F)c3O2)c(F)c1` [Compound 6], the “redox properties” value in data set [3] (Pt/Li/Li cell) is reported as “redox properties suitable for use as redox reactants for the positive electrolyte”.
With `Fc1c(F)c(F)c2c(c1F)OB(c1cc(C(F)(F)F)ccc1C(F)(F)F)O2` [Compound 7], the “redox properties” value in data set [3] (Pt/Li/Li cell) is recorded as “redox properties suitable for use as redox reactants for the positive electrolyte”.
The same measure, in the same setting: in the case of `Fc1c(F)c(F)c(B2Oc3c(F)c(F)c(F)c(F)c3O2)c(F)c1F` [Compound 8] it was “redox properties suitable for use as redox reactants for the positive electrolyte”.
On to `COCCOc1cc(C(C)(C)C)c(OCCOC)cc1C(C)(C)C` [DBBB, 2,5-Di-tert-butyl-1,4-bis(2-methoxyethoxy)benzene], for which the “redox potential, average of anodic and cathodic potentials [(Epa+Epc)/2]” value in data set [3] (0.005 M in Electrolyte A (1.2 M LiPF6 in EC/EMC 3/7 by volume), room temperature) is listed as “about 3.927 V vs. Li/Li^+”. Also, in data set [3] (0.005 M in Electrolyte B (0.2 M LiBF4 in propylene carbonate), room temperature), the redox potential was found to be 4.022 V vs. Li/Li^+. Besides, the diffusion coefficient result in data set [4] (Electrolyte A) is recorded as “about 1.30×10^−6 cm^2/s”; in data set [4] (Electrolyte B), “about 1.53×10^−6 cm^2/s”. For the same compound, in data set [1], the “redox properties” value is listed as “suitable reversible redox properties”. For the same compound, the “potential at which active in overcharge protection” value in data set [5] is listed as “about 4.0 V vs. Li/Li^+”.
Usually solubility stands for how much of the substance goes into solution per volume. As to `c1ccc2nccnc2c1` [Quinoxaline], in data set [2] (organic solvent or mixture, in propylene carbonate), the solubility is not below 2000 mM.
Regarding `COCCOc1c(F)c(F)c(OCCOC)c(F)c1F` [TFBMEB, 1,2,4,5-tetrafluoro-3,6-bis(2-methoxyethoxy)benzene], the Potential in data set [3] is 4.70 V vs. Li/Li. Besides, in data set [6], the “Energy Density” value is reported as 422.5 Wh/Kg and the “Intrinsic Capacity” value is 89.9 mAh/g.
On to `CCOc1c(F)c(F)c(OCC)c(F)c1F` [TFDEB, 1,2,4,5-tetrafluoro-3,6-diethoxybenzene], for which the Potential in data set [3] was 4.63 V vs. Li/Li. For the same compound, in data set [6], the “Energy Density” value turned out to be 520.9 Wh/Kg and the “Intrinsic Capacity” value is 112.5 mAh/g.
Consider `COc1c(F)c(F)c(OC)c(F)c1F` [TFDMB, 1,2,4,5-tetrafluoro-3,6-dimethoxybenzene], for which the Potential in data set [3] amounted to 4.70 V vs. Li/Li. Also, in data set [6], the “Energy Density” value amounted to 599.7 Wh/Kg and the “Intrinsic Capacity” value stood at 127.6 mAh/g.
`O=C(c1ccccc1)c1ccccc1` [benzophenone]: the “redox properties” value in data set [3] (Pt/Li/Li cell) is “suitable redox properties”.
`[Cl-].[Cl-].c1ccc(C[n+]2ccc(-c3cc[n+](Cc4ccccc4)cc3)cc2)cc1` [bis-benzyl-4,4′-bipyridinium dichloride]: the “redox properties” value in data set [3] (Pt/Li/Li cell) is “suitable redox properties”.
